According to patent US20090285766A1, “Photosensitising Composition and Uses Thereof” (National University of Singapore, priority 2005, published 2009):

Test system: Fibroblast L 929
Assay: Cytotoxic effect of PDT on fibroblasts (MTT)
Assay type: cell-based
Conditions: 100 μM photosensitiser, oxygen carrier, 20 min irradiation, MTT after 24 hours; hypochlorite 100 μL of 5.25%
Protocol: The experiment described below was performed to assess the cytotoxic effect of PDT in combination with two photosensitisers: […] Sodium hypochlorite is traditionally used to disinfect root canals. Fibroblast L 929 was used in this experiment. Approximately 3.2×10^5 cells were seeded in 4 cm diameter culture dishes in DMEM media supplemented with 10% FCS. Cells were grown by incubating at 37° C., in a carbon dioxide incubator for 24 hours. After the incubation period, 100 μL of ICG (1 mM) was added (the final concentration of ICG was 100 μM). 100 μL of oxygen carrier, perfluorodecahydro naphthalene,] was also added and irradiation was performed for 20 minutes (without shaking). The cells were left in the media for 24 hours under incubation. Later, the supernatant media was removed without disturbing the cell line. The cell layer was washed with 1 mL PBS twice. MTT (0.125 mg % in DMEM), as an indicator of the viable status of cells in the media was added to the Petri dish and incubated at 37° C., for 4 hours. The excess of dye was washed with PBS (2 mL). MTT formed in the Petri dish was extracted and added to 1 mL of DMSO. The optical density at 570 nm was measured. Sodium hypochlorite (100 μL of 5.25%) was used as a control in this experiment. All chemicals were purchased from Sigma Aldrich, St. Louis. Fibroblast L 929 was used in this experiment. […] The optical density at 570 nm was measured. […]

CC1(C)C(/C=C/C=C/C=C/C=C2\N(CCCCS(=O)(=O)O)c3ccc4ccccc4c3C2(C)C)=[N+](CCCCS(=O)(=O)[O-])c2ccc3ccccc3c21 [ICG, Indocyanine Green]
cytotoxicity (cells surviving after PDT, ranking): lesser cytotoxicity
